Experimental data from ChEMBL document CHEMBL2203181, “Microwave-assisted synthesis, molecular docking and antitubercular activity of 1,2,3,4-tetrahydropyrimidine-5-carbonitrile derivatives” (2012).

Columns and labels:
Type in all cases: functional
Set-up in all cases: scale not given: the % may be the effect or the level left
[1] = test system: Mycobacterium tuberculosis; assay: Antitubercular activity against streptomycin, isoniazid, rifampicin,ethambutol-resistant Mycobacterium tuberculosis clinical isolate assessed as reduction in RLU at 500 ug/mL after 72 hrs by luciferase reporter phage assay
[2] = test system: Mycobacterium tuberculosis; assay: Antitubercular activity against streptomycin, isoniazid, rifampicin,ethambutol-resistant Mycobacterium tuberculosis clinical isolate assessed as reduction in RLU at 100 ug/mL after 72 hrs by luciferase reporter phage assay
[3] = test system: Mycobacterium tuberculosis; assay: Antitubercular activity against streptomycin, isoniazid, rifampicin,ethambutol-resistant Mycobacterium tuberculosis clinical isolate assessed as reduction in RLU at 0.5 ug/mL after 72 hrs by luciferase reporter phage assay
[4] = test system: Mycobacterium tuberculosis; assay: Antitubercular activity against streptomycin, isoniazid, rifampicin,ethambutol-resistant Mycobacterium tuberculosis clinical isolate assessed as reduction in RLU at 2 ug/mL after 72 hrs by luciferase reporter phage assay

Row | SMILES | Activity [1] [%] | Activity [2] [%] | Activity [3] [%] | Activity [4] [%]
1 | N#Cc1c(-c2ccc(F)cc2)[nH]c(=O)[nH]c1=O | 47.86 | 38.38 |  | 
2 | N#Cc1c(-c2cccc(Cl)c2)[nH]c(=O)[nH]c1=O | 52.77 | 50.1 |  | 
3 | COc1ccc(-c2[nH]c(=O)[nH]c(=O)c2C#N)cc1O | 33.49 | 25.47 |  | 
4 | N#Cc1c(-c2ccc(Cl)cc2)[nH]c(=S)[nH]c1=O | 66.65 | 61.35 |  | 
5 | N#Cc1c(-c2ccc(Br)cc2)[nH]c(=S)[nH]c1=O | 74.91 | 38.03 |  | 
6 | NNC(=O)c1ccncc1 [ISONIAZID] |  |  | 89.6 | 
7 | CO[C@H]1/C=C/O[C@@]2(C)Oc3c(C)c(O)c4c(O)c(c(/C=N/N5CCN(C)CC5)c(O)c4c3C2=O)NC(=O)/C(C)=C\C=C\[C@H](C)[C@H](O)[C@@H](C)[C@@H](O)[C@@H](C)[C@H](OC(C)=O)[C@@H]1C [RIFAMPIN] |  |  |  | 29.19
